As a reminder, the IC50 is the concentration that gives 50% inhibition. Lower therefore signals greater potency in that assay. One may read the kcat as the maximal rate divided by the concentration of active sites. As usually defined, the kcat/Km is the second-order rate constant that governs catalysis at low substrate concentration.

For eight compounds, IC50, kcat and kcat/Km results are on record in ChEMBL document CHEMBL2311517, “Novel route to chaetomellic acid A and analogues: serendipitous discovery of a more competent FTase inhibitor” (Bioorg Med Chem, 2013).

Test [1] in a line: Inhibition of rat farnesyltransferase using dansyl-GCVIA as substrate preincubated for 5 mins measured over 300 secs by continuous fluorescence assay.
Test [2] can be described thus: Inhibition of yeast farnesyltransferase using dansyl-GCVIA as substrate preincubated for 5 mins measured over 300 secs by continuous fluorescence assay. Also on record: species or system Saccharomyces cerevisiae.
For test [3], the species on record is Rattus norvegicus. Nature of the test: Activity of rat farnesyltransferase.
Test [4] is filed under the species Rattus norvegicus. Nature of the test: Ratio of […] to Km for rat farnesyltransferase.

Where a SMILES comes first, the peptide text is derived from it. The star is where a group is joined. Dansyl = CN(C)c1cccc2c(S(=O)(=O)*)cccc12

With `CCCCCCCCCCCCCCCC/C(C(=O)O)=C(\C)C(=O)O`, the figures for the IC50 in test [1] and in test [2] were 2.6 µM and 65.6 µM, respectively.

Take `CCCCSCCCCCCCCC/C(C(=O)O)=C(\C)C(=O)O`: the IC50 amounted to 0.19 µM in test [1] and 3.5 µM in test [2]. As for `CCCCCCCCCCCC/C(C(=O)O)=C(\C)C(=O)O` [CHAETOMELLIC ACID C], the half-inhibitory concentration (IC50) in test [2] came to 4 µM. In other words, the single-digit micromolar range. Regarding `C=CCCCCCCC/C(C(=O)O)=C(\C)C(=O)O`, the IC50 in test [1] is 0.49 µM; in test [2], 13.4 µM.

`CC(C)=CCC/C(C)=C/CC/C(C)=C/C/C(C(=O)O)=C(\C)C(=O)O` yielded a half-maximal inhibitory concentration (IC50) in test [2] of 2.4 µM. As to `CCCCCCCCCCCCCC/C(C(=O)O)=C(\C)C(=O)O`, the IC50 in test [1] was found to be 0.91 µM; in test [2], 16 µM. On to `CC[C@H](C)[C@H](NC(=O)[C@@H](NC(=O)[C@H](CS)NC(=O)CNS(=O)(=O)c1cccc2c(N(C)C)cccc12)C(C)C)C(=O)N[C@@H](C)C(=O)O` (Dansyl-GCVIA-OH), for which the kcat in the test filed under Rattus norvegicus [3] was more than 0.2 s⁻¹. Also, the kcat/Km in the test filed under Rattus norvegicus [4] is 120000 M⁻¹ s⁻¹. `CC(C)C[C@H](NC(=O)[C@@H](NC(=O)[C@H](CS)NC(=O)CNS(=O)(=O)c1cccc2c(N(C)C)cccc12)C(C)C)C(=O)N[C@@H](CO)C(=O)O` (Dansyl-GCVLS-OH): the kcat in the test filed under Rattus norvegicus [3] amounted to 0.4 s⁻¹. Also, in the test listed under Rattus norvegicus [4], the catalytic efficiency (kcat/Km) stood at 170000 M⁻¹ s⁻¹.
